EC50, Activity and bioavailability data for twelve molecules are collected here from ChEMBL document CHEMBL1138376, “Identification of a series of highly potent activators of the Nurr1 signaling pathway” (Bioorg Med Chem Lett, 2007).

The EC50 is the concentration at which the effect is half-maximal. As usually defined, the bioavailability is the share of a dose that reaches the circulation, judged against a reference dose that is usually intravenous.

Structures are written as SMILES. A value given as a limit tells only on which side of the number the result lay.

Data set [1] deals with T1, Nuclear receptor subfamily 4 group A member 2 (Homo sapiens, UniProt P43354). Kind of data set: Activation of Nurr1 expressed in MN9D cells by luciferase reporter gene assay. The class given is cell-based. (In general: A reporter such as luciferase makes a cellular process visible.)
The target of data set [2] is T1, Nuclear receptor subfamily 4 group A member 2. As to the kind of experiment: Activation of Nurr1 expressed in MN9D cells by luciferase reporter gene assay relative to control. Also noted: concentration or dose not given beside the values. The class given is cell-based.
Data set [3] can be described thus: Bioavailability in mouse at 10 umol/kg, po. The class given is ADME, organism-based. The conditions noted are these: in vivo.

T1 sequence (P43354 whole entry): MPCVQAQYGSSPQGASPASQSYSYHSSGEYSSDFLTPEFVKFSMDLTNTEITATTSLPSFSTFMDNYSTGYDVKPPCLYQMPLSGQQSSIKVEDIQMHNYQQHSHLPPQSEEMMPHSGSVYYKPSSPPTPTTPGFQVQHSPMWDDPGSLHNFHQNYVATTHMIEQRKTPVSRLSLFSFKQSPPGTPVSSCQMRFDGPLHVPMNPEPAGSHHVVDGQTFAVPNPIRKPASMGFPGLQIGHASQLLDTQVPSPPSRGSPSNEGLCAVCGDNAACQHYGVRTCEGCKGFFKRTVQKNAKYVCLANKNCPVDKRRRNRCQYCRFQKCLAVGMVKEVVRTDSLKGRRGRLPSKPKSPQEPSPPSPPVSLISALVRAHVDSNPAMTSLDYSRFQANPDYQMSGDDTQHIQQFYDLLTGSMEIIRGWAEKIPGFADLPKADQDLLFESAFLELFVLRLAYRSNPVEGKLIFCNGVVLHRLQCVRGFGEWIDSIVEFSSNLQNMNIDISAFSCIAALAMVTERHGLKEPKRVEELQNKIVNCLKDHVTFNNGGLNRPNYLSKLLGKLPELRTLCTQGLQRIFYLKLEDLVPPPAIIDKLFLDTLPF

For `COc1ccc(-c2cc3onc(-c4ccccc4)c3c(=O)n2C)cc1`, the EC50 in data set [1] worked out at 0.0041 µM. This molecule returned an Activity in data set [2] of 185%. `Cc1cc2onc(-c3ccccc3)c2c(=O)n1C`: the EC50 in data set [1] was > 2 µM. In turn, `Cn1c(-c2ccncc2)cc2onc(-c3ccccc3)c2c1=O` returned a 50% effective concentration (EC50) in data set [1] of 0.13 µM. Moreover, the Activity in data set [2] was 198%. `Cn1c(-c2ccc3c(c2)OCO3)cc2onc(-c3ccccc3)c2c1=O` yielded an EC50 in data set [1] of 0.0008 µM. This molecule had an Activity in data set [2] of 202%. `O=c1[nH]c(-c2ccccc2)cc2onc(-c3ccccc3)c12` [ISOXAZOLOPYRIDINONE] showed an EC50 in data set [1] of 0.0775 µM. The Activity in data set [2] is 207%. Regarding `Cn1c(-c2ccc(Oc3ccccc3)cc2)cc2onc(-c3ccccc3)c2c1=O`, the EC50 in data set [1] is > 2 µM. `CN(C)Cc1ccc(-c2cc3onc(-c4ccccc4)c3c(=O)n2C)cc1`: a half-maximal response in data set [1] (EC50) required 0.026 µM. The same molecule yielded an Activity in data set [2] of 171%. The corresponding values for `CC(C)OCCOCc1ccc(-c2cc3onc(-c4ccccc4)c3c(=O)n2C)cc1` are 0.113 µM and 173%.

The molecule `CN1CCN(Cc2ccc(-c3cc4onc(-c5ccccc5)c4c(=O)n3C)cc2)CC1` displayed an EC50 in data set [1] of 0.0319 µM. The same molecule yielded an Activity in data set [2] of 163%. On to `COCCOCc1ccc(-c2cc3onc(-c4ccccc4)c3c(=O)n2C)cc1`, for which, in data set [1], the EC50 was found to be 0.0039 µM. Further, the Activity in data set [2] came out at 208%. Besides, the bioavailability in data set [3] was found to be 95%. Consider `COc1ccc(-c2cc3onc(-c4ccccc4)c3c(=O)n2C)c(OC)c1`, for which, in data set [1], the midpoint of the response, the EC50, lay at 0.0592 µM. Further, the Activity in data set [2] was determined as 202%. The corresponding values for `Cn1c(-c2ccc(COCCO)cc2)cc2onc(-c3ccccc3)c2c1=O` are 0.0035 µM and 226%.
